{"source": "patent US9669003B2", "about": "“Use of flavone and flavanone derivatives in preparation of sedative and hypnotic drugs” (priority 2012, dated 2017)", "assay_type_in_all_cases": "in vivo", "key": {"Kunming mice [1]": {"system": "Kunming mice", "assay": "Influence on hypnosis effect with pentobarbital sodium doses below the threshold (25 mg/kg i.p.)", "conditions": "pentobarbital sodium 25 mg/kg i.p. 60 min later, sleep observed in 30 min, n = 10", "outline": "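Kunming mice (10 per group, half female) given single oral doses of 25, 50 or 100 mg/kg in 0.5% CMC-Na; 60 min later pentobarbital sodium 25 mg/kg i.p. Sleep (righting reflex lost >1 min) scored within 30 min as percentage asleep, χ2 test.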"}, "Kunming mice [2]": {"system": "Kunming mice", "assay": "Influence on autonomic activity of normal mice (ZIL-2 mice autonomic activity meter, counts within 10 min)", "conditions": "intragastric, x ± s, n = 10; for Times of activities in 1 h after drug administration/10 min: 1 h after administration; for Times of activities in 2 h after drug administration/10 min: 2 h after administration; for Times of activities in 24 h after drug administration/10 min: 24 h after administration", "outline": "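Kunming mice (10 per group, half each sex) were dosed at 25, 50 or 100 mg/kg in 0.5% CMC-Na. Spontaneous activity counts over 10 min were recorded at 1 h, 2 h and 24 h post-dose. Groups were compared by ANOVA with Dunnett's test after Levene's check.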"}, "Kunming mice [3]": {"system": "Kunming mice", "assay": "Influence on hypnosis effect with pentobarbital sodium doses at the threshold (50 mg/kg i.p.)", "conditions": "pentobarbital sodium 50 mg/kg i.p. 60 min later, x ± s, n = 10", "outline": "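Kunming mice (10/group, half each sex) received compound in 0.5% CMC-Na intragastrically at 25, 50 or 100 mg/kg; 60 min later given 0.3% sodium pentobarbital 50 mg/kg i.p. Sleep latency and duration recorded by loss of righting reflex over 1 min; ANOVA and χ2 for sleep incidence.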"}, "[4]": {"conditions": "test drug 25 mg/kg intragastric single dose"}, "[5]": {"conditions": "test drug 50 mg/kg intragastric single dose"}, "[6]": {"conditions": "test drug 100 mg/kg intragastric single dose"}, "[7]": {"conditions": "25 mg/kg intragastric single dose"}, "[8]": {"conditions": "50 mg/kg intragastric single dose"}, "[9]": {"conditions": "100 mg/kg intragastric single dose"}}, "note": "Marks after values point to notes of the source that are not given here."}
{"smiles": "COc1ccc(C2CC(=O)c3c(OC)c(OC)c(OC)c(OC)c3O2)cc1OC", "note": "(stereo not drawn) [Example 48, 5,6,7,8,3′,4′-hexamethoxyl-flavanone]", "values": [{"measurement": "Number of sleeping animals", "setting": "Kunming mice [1]; [4]", "result": 5}, {"measurement": "rate of sleeping (%)", "setting": "Kunming mice [1]; [4]", "result": "50** %"}, {"measurement": "Number of sleeping animals", "setting": "Kunming mice [1]; [5]", "result": 6}, {"measurement": "rate of sleeping (%)", "setting": "Kunming mice [1]; [5]", "result": "60** %"}, {"measurement": "Number of sleeping animals", "setting": "Kunming mice [1]; [6]", "result": 8}, {"measurement": "rate of sleeping (%)", "setting": "Kunming mice [1]; [6]", "result": "80*** %"}, {"measurement": "Times of activities in 1 h after drug administration/10 min", "setting": "Kunming mice [2]; 25 mg/kg", "result": "225.6 ± 43.2 /10 min"}, {"measurement": "Times of activities in 2 h after drug administration/10 min", "setting": "Kunming mice [2]; 25 mg/kg", "result": "229.4 ± 53.7 /10 min"}, {"measurement": "Times of activities in 24 h after drug administration/10 min", "setting": "Kunming mice [2]; 25 mg/kg", "result": "308.5 ± 75.2 /10 min"}, {"measurement": "Times of activities in 1 h after drug administration/10 min", "setting": "Kunming mice [2]; 50 mg/kg", "result": "145.1 ± 41.6 /10 min"}, {"measurement": "Times of activities in 2 h after drug administration/10 min", "setting": "Kunming mice [2]; 50 mg/kg", "result": "140.6 ± 40.8 /10 min"}, {"measurement": "Times of activities in 24 h after drug administration/10 min", "setting": "Kunming mice [2]; 50 mg/kg", "result": "317.4 ± 95.6 /10 min"}, {"measurement": "Times of activities in 1 h after drug administration/10 min", "setting": "Kunming mice [2]; 100 mg/kg", "result": "120.3 ± 48.3 /10 min"}, {"measurement": "Times of activities in 2 h after drug administration/10 min", "setting": "Kunming mice [2]; 100 mg/kg", "result": "118.5 ± 42.6 /10 min"}, {"measurement": "Times of activities in 24 h after drug administration/10 min", "setting": "Kunming mice [2]; 100 mg/kg", "result": "302.1 ± 89.0 /10 min"}, {"measurement": "duration of sleep", "setting": "Kunming mice [3]; [7]", "result": "50.55 ± 20.76", "unit": "min"}, {"measurement": "time to sleep", "setting": "Kunming mice [3]; [7]", "result": "3.40 ± 1.25", "unit": "min"}, {"measurement": "duration of sleep", "setting": "Kunming mice [3]; [8]", "result": "67.54 ± 21.07", "unit": "min"}, {"measurement": "time to sleep", "setting": "Kunming mice [3]; [8]", "result": "3.19 ± 1.21", "unit": "min"}, {"measurement": "duration of sleep", "setting": "Kunming mice [3]; [9]", "result": "87.51 ± 24.93", "unit": "min"}, {"measurement": "time to sleep", "setting": "Kunming mice [3]; [9]", "result": "2.05 ± 1.80", "unit": "min"}]}
{"smiles": "COc1ccc(-c2cc(=O)c3c(OC)c(OC)c(OC)c(OC)c3o2)cc1", "note": "[Example 8, 5,6,7,8,4′-penta methoxyl-flavone]", "values": [{"measurement": "Number of sleeping animals", "setting": "Kunming mice [1]; [4]", "result": 5}, {"measurement": "rate of sleeping (%)", "setting": "Kunming mice [1]; [4]", "result": "50** %"}, {"measurement": "Number of sleeping animals", "setting": "Kunming mice [1]; [5]", "result": 6}, {"measurement": "rate of sleeping (%)", "setting": "Kunming mice [1]; [5]", "result": "60** %"}, {"measurement": "Number of sleeping animals", "setting": "Kunming mice [1]; [6]", "result": 8}, {"measurement": "rate of sleeping (%)", "setting": "Kunming mice [1]; [6]", "result": "80*** %"}, {"measurement": "Times of activities in 1 h after drug administration/10 min", "setting": "Kunming mice [2]; 25 mg/kg", "result": "301.3 ± 43.5 /10 min"}, {"measurement": "Times of activities in 2 h after drug administration/10 min", "setting": "Kunming mice [2]; 25 mg/kg", "result": "290.2 ± 39.6 /10 min"}, {"measurement": "Times of activities in 24 h after drug administration/10 min", "setting": "Kunming mice [2]; 25 mg/kg", "result": "286.4 ± 75.2 /10 min"}, {"measurement": "Times of activities in 1 h after drug administration/10 min", "setting": "Kunming mice [2]; 50 mg/kg", "result": "262.1 ± 55.5 /10 min"}, {"measurement": "Times of activities in 2 h after drug administration/10 min", "setting": "Kunming mice [2]; 50 mg/kg", "result": "244.7 ± 53.9 /10 min"}, {"measurement": "Times of activities in 24 h after drug administration/10 min", "setting": "Kunming mice [2]; 50 mg/kg", "result": "299.8 ± 76.4 /10 min"}, {"measurement": "Times of activities in 1 h after drug administration/10 min", "setting": "Kunming mice [2]; 100 mg/kg", "result": "185.7 ± 41.6 /10 min"}, {"measurement": "Times of activities in 2 h after drug administration/10 min", "setting": "Kunming mice [2]; 100 mg/kg", "result": "167.2 ± 48.5 /10 min"}, {"measurement": "Times of activities in 24 h after drug administration/10 min", "setting": "Kunming mice [2]; 100 mg/kg", "result": "280.4 ± 84.2 /10 min"}, {"measurement": "duration of sleep", "setting": "Kunming mice [3]; [7]", "result": "21.52 ± 16.93", "unit": "min"}, {"measurement": "time to sleep", "setting": "Kunming mice [3]; [7]", "result": "5.40 ± 1.83", "unit": "min"}, {"measurement": "duration of sleep", "setting": "Kunming mice [3]; [8]", "result": "29.13 ± 26.44", "unit": "min"}, {"measurement": "time to sleep", "setting": "Kunming mice [3]; [8]", "result": "5.05 ± 1.73", "unit": "min"}, {"measurement": "duration of sleep", "setting": "Kunming mice [3]; [9]", "result": "66.82 ± 33.63", "unit": "min"}, {"measurement": "time to sleep", "setting": "Kunming mice [3]; [9]", "result": "3.21 ± 1.32", "unit": "min"}]}
{"smiles": "COc1c(O)cc(C2CC(=O)c3c(O)cc(O)cc3O2)cc1C(=O)O", "note": "(stereo not drawn) [Example 50]", "values": [{"measurement": "Number of sleeping animals", "setting": "Kunming mice [1]; [4]", "result": 2}, {"measurement": "rate of sleeping (%)", "setting": "Kunming mice [1]; [4]", "result": 20, "unit": "%"}, {"measurement": "Number of sleeping animals", "setting": "Kunming mice [1]; [5]", "result": 4}, {"measurement": "rate of sleeping (%)", "setting": "Kunming mice [1]; [5]", "result": "40* %"}, {"measurement": "Number of sleeping animals", "setting": "Kunming mice [1]; [6]", "result": 7}, {"measurement": "rate of sleeping (%)", "setting": "Kunming mice [1]; [6]", "result": "70** %"}, {"measurement": "Times of activities in 1 h after drug administration/10 min", "setting": "Kunming mice [2]; 25 mg/kg", "result": "319.2 ± 55.4 /10 min"}, {"measurement": "Times of activities in 2 h after drug administration/10 min", "setting": "Kunming mice [2]; 25 mg/kg", "result": "290.6 ± 41.2 /10 min"}, {"measurement": "Times of activities in 24 h after drug administration/10 min", "setting": "Kunming mice [2]; 25 mg/kg", "result": "303.2 ± 78.6 /10 min"}, {"measurement": "Times of activities in 1 h after drug administration/10 min", "setting": "Kunming mice [2]; 50 mg/kg", "result": "297.5 ± 42.5 /10 min"}, {"measurement": "Times of activities in 2 h after drug administration/10 min", "setting": "Kunming mice [2]; 50 mg/kg", "result": "253.5 ± 40.4 /10 min"}, {"measurement": "Times of activities in 24 h after drug administration/10 min", "setting": "Kunming mice [2]; 50 mg/kg", "result": "304.7 ± 92.8 /10 min"}, {"measurement": "Times of activities in 1 h after drug administration/10 min", "setting": "Kunming mice [2]; 100 mg/kg", "result": "279.4 ± 48.3 /10 min"}, {"measurement": "Times of activities in 2 h after drug administration/10 min", "setting": "Kunming mice [2]; 100 mg/kg", "result": "224.7 ± 46.3 /10 min"}, {"measurement": "Times of activities in 24 h after drug administration/10 min", "setting": "Kunming mice [2]; 100 mg/kg", "result": "312.4 ± 79.1 /10 min"}, {"measurement": "duration of sleep", "setting": "Kunming mice [3]; [7]", "result": "22.71 ± 26.17", "unit": "min"}, {"measurement": "time to sleep", "setting": "Kunming mice [3]; [7]", "result": "5.41 ± 2.17", "unit": "min"}, {"measurement": "duration of sleep", "setting": "Kunming mice [3]; [8]", "result": "28.68 ± 27.56", "unit": "min"}, {"measurement": "time to sleep", "setting": "Kunming mice [3]; [8]", "result": "5.07 ± 2.34", "unit": "min"}, {"measurement": "duration of sleep", "setting": "Kunming mice [3]; [9]", "result": "65.35 ± 46.27", "unit": "min"}, {"measurement": "time to sleep", "setting": "Kunming mice [3]; [9]", "result": "3.25 ± 1.16", "unit": "min"}]}
